The values that follow come from US12264134B2 (Merck Sharp & Dohme LLC, priority 2018, dated 2025).

Experiment [1] has as its target T1, IDO1 (Homo sapiens, UniProt P14902). The experiment can be described thus: IDO1 Human Whole blood Assay. In kind it is cell-based. Also on record: Human whole blood was drawn in sodium heparin coated tubes from healthy internal donors; from tissue; host or cells: human whole blood from healthy donors, stimulated with LPS and IFNγ. To be noted: LPS and IFNγ stimulated, 18 h, read-out: Human Whole Blood Potency, IC50. The method, boiled down:
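LC/MS/MS of kynurenine, normalized to spiked isotope-labeled standard (3 μM final), served as the readout. Beforehand, fresh human blood with compound (15 min preincubation) was stimulated overnight (18 h, 37 °C) with 100 ng/mL LPS/IFNγ. IC50 was obtained by four-parameter curve fitting.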

The target in experiment [2] is T1, IDO1. The experiment can be described thus: IDO1 Cellular Assay in HeLa Cells Stimulated with IFNγ. In kind it is cell-based. The note with it: read-out: HeLa Cell Potency, IC50.

T1 sequence (P14902 whole entry): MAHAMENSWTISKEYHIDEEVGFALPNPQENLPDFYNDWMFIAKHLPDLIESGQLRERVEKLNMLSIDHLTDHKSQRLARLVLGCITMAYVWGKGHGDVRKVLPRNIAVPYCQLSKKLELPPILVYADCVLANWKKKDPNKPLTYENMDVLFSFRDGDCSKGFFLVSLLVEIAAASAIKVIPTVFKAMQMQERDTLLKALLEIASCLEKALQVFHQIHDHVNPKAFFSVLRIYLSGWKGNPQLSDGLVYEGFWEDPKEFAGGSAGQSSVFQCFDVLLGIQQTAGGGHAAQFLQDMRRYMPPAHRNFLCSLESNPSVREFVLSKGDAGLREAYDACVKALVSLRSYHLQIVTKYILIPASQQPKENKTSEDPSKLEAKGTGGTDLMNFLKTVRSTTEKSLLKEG

What is called IC50 is the concentration needed to halve the response being measured. Turning to `Cc1cccc(N2CCN(C(=O)Cn3nc(C(=O)N4CCN(C(=O)CO)CC4)c4c3C[C@H]3C[C@@H]43)CC2)c1C` [Example 285, 1-[4-(2,3-dimethylphenyl)piperazin-1-yl]-2-{(3bR,4aR)-3-[4-(hydroxyacetyl)piperazine-1-carbonyl]-3b,4,4a,5-tetrahydro-1H-cyclopropa[3,4]cyclopenta[1,2-c]pyrazol-1-yl}ethan-1-one], the IC50 in experiment [1] turned out to be 58 nM; in experiment [2], 1.46 nM.

In the case of `Cc1cccc(N2CCN(C(=O)Cn3nc(C(=O)N4CCC(NC(=O)CCO)CC4)c4c3CCCC4)CC2)c1C` [Example 478, N-(1-(1-(2-(4-(2,3-dimethylphenyl)piperazin-1-yl)-2-oxoethyl)-4,5,6,7-tetrahydro-1H-indazol-3-carbonyl)piperidin-4-yl)-3-hydroxypropanamide], the IC50 in experiment [1] was determined as 137 nM; in experiment [2], 7.15 nM.

Regarding `Cc1cccc(N2CCN(C(=O)Cn3nc(C(=O)N4CCO[C@@H](CO)C4)c4c3CCCC4)CC2)c1C` [Example 470, (R)-1-(4-(2,3-dimethylphenyl)piperazin-1-yl)-2-(3-(2-(hydroxymethyl)morpholine-4-carbonyl)-4,5,6,7-tetrahydro-1H-indazol-1-yl)ethanone], the figures for the IC50 in experiment [1] and in experiment [2] were 31 nM and 2.62 nM, respectively.

As to `Cc1cccc(N2CCN(C(=O)Cn3nc(C(=O)N4CCC(O)C(F)C4)c4c3CCC4)C3(CC3)C2)c1C` (stereo not drawn) [Example 325, 1-[7-(2,3-dimethylphenyl)-4,7-diazaspiro[2.5]octan-4-yl]-2-[3-(3-fluoro-4-hydroxy-piperidine-1-carbonyl)-5,6-dihydro-4H-cyclopenta[c]pyrazol-1-yl]ethanone], the IC50 in experiment [1] turned out to be 625 nM; in experiment [2], 4.08 nM.

Consider `Cc1cccc(N2CCN(C(=O)Cn3nc(C(=O)N4CC[C@@H](O)[C@H](F)C4)c4c3C[C@H]3C[C@@H]43)CC2)c1C` [Example 279, 1-[4-(2,3-dimethylphenyl)piperazin-1-yl]-2-{(3bR,4aR)-3-[(3R,4R)-3-fluoro-4-hydroxypiperidine-1-carbonyl]-3b,4,4a,5-tetrahydro-1H-cyclopropa[3,4]cyclopenta[1,2-c]pyrazol-1-yl}ethan-1-one], for which the results for the half-maximal inhibitory concentration (IC50) in experiment [1] and in experiment [2] were 70 nM and 0.59 nM, respectively.

On to `Cc1c(Cl)cccc1N1CCN(C(=O)Cn2nc(C(=O)N3CCC(OCCO)CC3)c3c2CCC(F)C3)CC1` (single isomer, unassigned) [Example 368, 1-(4-(3-chloro-2-methylphenyl)piperazin-1-yl)-2-(5-fluoro-3-(4-(2-hydroxyethoxy)piperidine-1-carbonyl)-4,5,6,7-tetrahydro-1H-indazol-1-yl)ethan-1-one], for which the IC50 in experiment [1] amounted to 55 nM; in experiment [2], 2.8 nM.

`Cc1cccc(N2CCN(C(=O)Cn3nc(C(=O)N4CCC(F)(CO)CC4)c4c3C[C@H]3C[C@@H]43)C3(CC3)C2)c1C` [Example 362, 1-(7-(2,3-dimethylphenyl)-4,7-diazaspiro[2.5]octan-4-yl)-2-((3bR,4aR)-3-(4-fluoro-4-(hydroxymethyl)piperidine-1-carbonyl)-3b,4,4a,5-tetrahydro-1H-cyclopropa[3,4]cyclopenta[1,2-c]pyrazol-1-yl)ethanone]: the IC50 in experiment [1] was 335 nM; in experiment [2], 0.8 nM.

As to `Cc1cccc(N2CCN(C(=O)Cn3nc(C(=O)N4CCCC4)c4c3CCCCC4)CC2)c1C` [Example 5, 1-[4-(2,3-dimethylphenyl)piperazin-4-ium-1-yl]-2-[3-(pyrrolidine-1-carbonyl)-5,6,7,8-tetrahydro-4H-cyclohepta[c]pyrazol-1-yl]ethanone], the results for the IC50 in experiment [1] and in experiment [2] were 414 nM and 6.83 nM, respectively.

On to `Cc1cccc(N2CCN(C(=O)Cn3nc(C(=O)N4CCC5(CC4)COCC5O)c4c3CCC4)CC2)c1C` (stereo not drawn) [Example 181, 1-[4-(2,3-dimethylphenyl)piperazin-1-yl]-2-[3-(4-hydroxy-2-oxo-8-azaspiro[4.5]decane-8-carbonyl)-5,6-dihydrocyclopenta[c]pyrazol-1(4H)-yl]ethan-1-one], for which the figures for the 50% inhibitory concentration (IC50) in experiment [1] and in experiment [2] were 125 nM and 3.3 nM, respectively.

With `Cc1cccc(N2CCN(C(=O)Cn3nc(C(=O)N4CCN(CC(N)=O)CC4)c4c3CCCC4)CC2)c1C` [Example 454, 2-(4-(1-(2-(4-(2,3-dimethylphenyl)piperazin-1-yl)-2-oxoethyl)-4,5,6,7-tetrahydro-1H-indazol-3-carbonyl)piperazin-1-yl) acetamide], the results for the IC50 in experiment [1] and in experiment [2] were 68 nM and 2.82 nM, respectively.

As to `Cc1c(Cl)cccc1N1CCN(C(=O)Cn2nc(C(=O)N3CCN(C(=O)CO)CC3)c3c2CCC(F)(F)C3)CC1` [Example 384, 1-(4-(3-chloro-2-methylphenyl)piperazin-1-yl)-2-(5,5-difluoro-3-(4-(2-hydroxyacetyl)piperazine-1-carbonyl)-4,5,6,7-tetrahydro-1H-indazol-1-yl)ethan-1-one], the IC50 was 249 nM in experiment [1] and 5.32 nM in experiment [2].

Regarding `Cc1cccc(N2CCN(C(=O)Cn3nc(C(=O)N4CCC(O)C(F)C4)c4c3CCC4)C3(CC3)C2)c1C` (single isomer, unassigned) [Example 330, 1-[7-(2,3-dimethylphenyl)-4,7-diazaspiro[2.5]octan-4-yl]-2-[3-(3-fluoro-4-hydroxy-piperidine-1-carbonyl)-5,6-dihydro-4H-cyclopenta[c]pyrazol-1-yl]ethanone], the values for the IC50 in experiment [1] and in experiment [2] were 971 nM and 7.61 nM, respectively.

With `COCCN1[C@H](C)CN(C(=O)c2nn(CC(=O)N3CCN(c4cccc(C)c4C)CC3)c3c2CCC3)C[C@@H]1C` [Example 172, 1-[4-(2,3-dimethylphenyl)piperazin-1-yl]-2-{3-[(3R,5S)-4-(2-methoxyethyl)-3,5-dimethylpiperazine-1-carbonyl]-5,6-dihydrocyclopenta[c]pyrazol-1(4H)-yl}ethan-1-one], the IC50 in experiment [1] is 1240 nM; in experiment [2] it was 6.12 nM.

`Cc1cccc(N2CCN(C(=O)Cn3nc(C(=O)N4CCN(S(C)(=O)=O)C[C@@H]4C)c4c3CCC4)CC2)c1C` [Example 124, 1-[4-(2,3-dimethylphenyl)piperazin-1-yl]-2-{3-[(2S)-2-methyl-4-(methylsulfonyl)piperazine-1-carbonyl]-5,6-dihydrocyclopenta[c]pyrazol-1(4H)-yl}ethan-1-one]: the half-maximal inhibitory concentration (IC50) in experiment [1] was 877 nM; in experiment [2], 1.32 nM.

As for `Cc1cccc(N2CCN(C(=O)Cn3nc(C(=O)N4CC[C@@H](O)C[C@@H]4C)c4c3CCC4)CC2)c1C` [Example 125, 1-[4-(2,3-dimethylphenyl)piperazin-1-yl]-2-{3-[(2S,4R)-4-hydroxy-2-methylpiperidine-1-carbonyl]-5,6-dihydrocyclopenta[c]pyrazol-1(4H)-yl}ethan-1-one], the IC50 in experiment [1] was found to be 444 nM; in experiment [2] it was 3.29 nM.

As to `Cc1cccc(N2CCN(C(=O)Cn3nc(C(=O)N4C[C@@H](C)O[C@@H](C)C4)c4c3[C@@H]3C[C@@H]3C4)CC2)c1C` [Example 296, 2-{(4aR,5aR)-3-[(2R,6S)-2,6-dimethylmorpholine-4-carbonyl]-4,4a,5,5a-tetrahydro-1H-cyclopropa[4,5]cyclopenta[1,2-c]pyrazol-1-yl}-1-[4-(2,3-dimethylphenyl)piperazin-1-yl]ethan-1-one], the IC50 in experiment [1] came out at 543 nM; in experiment [2] it was 7.99 nM.

Consider `Cc1cccc(N2CCN(C(=O)Cn3nc(C(=O)N4CCC(F)(CO)CC4)c4c3CCC4)CC2)c1C` [Example 293, 1-[4-(2,3-dimethylphenyl)piperazin-1-yl]-2-{3-[4-fluoro-4-(hydroxymethyl)piperidine-1-carbonyl]-5,6-dihydrocyclopenta[c]pyrazol-1(4H)-yl}ethan-1-one], for which the IC50 in experiment [1] was determined as 178 nM; in experiment [2], 5.46 nM.

For `Cc1c(F)ccc(N2CCN(C(=O)Cn3nc(C(=O)N4CC[C@H](O)[C@H](F)C4)c4c3C[C@H]3C[C@@H]43)C3(CC3)C2)c1C` [Example 317, 1-[7-(4-fluoro-2,3-dimethylphenyl)-4,7-diazaspiro[2.5]octan-4-yl]-2-{(3bR,4aR)-3-[(3R,4S)-3-fluoro-4-hydroxypiperidine-1-carbonyl]-3b,4,4a,5-tetrahydro-1H-cyclopropa[3,4]cyclopenta[1,2-c]pyrazol-1-yl}ethan-1-one], the IC50 in experiment [1] was 205 nM; in experiment [2] it was 1.65 nM.

For `Cc1cccc(N2CCN(C(=O)Cn3nc(C(=O)N4CCC(O)C(F)C4)c4c3CCC4)C3(CC3)C2)c1C` (single isomer, unassigned) [Example 394, 1-(7-(2,3-dimethylphenyl)-4,7-diazaspiro[2.5]octan-4-yl)-2-(3-(3-fluoro-4-hydroxypiperidine-1-carbonyl)-5,6-dihydrocyclopenta[c]pyrazol-1(4H)-yl)ethanone], the IC50 is 904 nM in experiment [1] and 7.2 nM in experiment [2].

As for `Cc1cccc(N2CCN(C(=O)Cn3nc(C(=O)N4CCC(OCCO)CC4)c4c3CCC4)CC2)c1C` [Example 120, 1-[4-(2,3-dimethylphenyl)piperazin-1-yl]-2-{3-[4-(2-hydroxyethoxy)piperidine-1-carbonyl]-5,6-dihydrocyclopenta[c]pyrazol-1(4H)-yl}ethan-1-one], the IC50 stood at 199 nM in experiment [1] and 2.97 nM in experiment [2].

In the case of `Cc1cccc(N2CCN(C(=O)Cn3nc(C(=O)N4CC[C@H](O)[C@H](F)C4)c4c3C[C@H]3C[C@@H]43)C(C)(C)C2)c1C` [Example 331, 1-[4-(2,3-dimethylphenyl)-2,2-dimethylpiperazin-1-yl]-2-{(3bR,4aR)-3-[(3R,4S)-3-fluoro-4-hydroxypiperidine-1-carbonyl]-3b,4,4a,5-tetrahydro-1H-cyclopropa[3,4]cyclopenta[1,2-c]pyrazol-1-yl}ethan-1-one], the results for the IC50 in experiment [1] and in experiment [2] were 9120 nM and 84.5 nM, respectively.
